Data reported in patent US10961200B2, “Small molecule inhibitors of lactate dehydrogenase and methods of use thereof” (THE UNITED STATES OF AMERICA, AS REPRESENTED BY THE …, priority 2014, dated 2021).
pIC50: −log10 of the molar value.

Molecular target: Human LDHA (Homo sapiens (Human), UniProt P00338)
Assay: human LDHA primary biochemical assay (resazurin/diaphorase coupled, fluorescence)
Conditions: LDHA inhibitory activity, assay of Example 1; activity level classes
Source text: Test compounds were placed in a Greiner Bio-One (Monroe, N.C.) 1536-well black solid bottom assay plate. 200 millimolar (mM) Tris HCl, pH 7.4, 100 micromolar […] EDTA and 0.01% TWEEN-20™, final concentration, was used as the assay buffer. The LDHA reagent was 2 nanomolar (nM) Human LDHA (Meridian Life Science, Inc., Memphis, Tenn.), final concentration, in assay buffer.

| SMILES | pIC50 |
| --- | --- |
| NS(=O)(=O)c1ccc(Cc2c(-c3cccc4cc(F)ccc34)nn(-c3nc(C(=O)O)cs3)c2O)cc1 [Compound 89, 2-(3-(6-fluoronaphthalen-1-yl)-5-hydroxy-4-(4-sulfamoylbenzyl)-1H-pyrazol-1-yl)thiazole-4-carboxylic acid] | < 4.24 |
| CS(=O)(=O)c1cccc(-c2cc(O)n(-c3nc(C(=O)O)cs3)n2)c1 [Compound 92, 2-(5-hydroxy-3-(3-(methylsulfonyl)phenyl)-1H-pyrazol-1-yl)thiazole-4-carboxylic acid] | < 4.24 |
| O=C(O)c1csc(-n2nc(-c3cccc(N4CCOCC4)c3)cc2O)n1 [Compound 93, 2-(5-hydroxy-3-(3-morpholinophenyl)-1H-pyrazol-1-yl)thiazole-4-carboxylic acid] | < 4.24 |
| O=C(O)c1csc(-n2nc(-c3cc(F)cc(F)c3)cc2O)n1 [Compound 95, 2-(3-(3,5-difluorophenyl)-5-hydroxy-1H-pyrazol-1-yl)thiazole-4-carboxylic acid] | < 4.24 |
| O=C(O)c1csc(-n2nc(-c3cccc(F)c3F)cc2O)n1 [Compound 96, 2-(3-(2,3-difluorophenyl)-5-hydroxy-1H-pyrazol-1-yl)thiazole-4-carboxylic acid] | < 4.24 |
| CCOC(=O)OC(C)OC(=O)c1csc(-n2nc(-c3ccc(F)c(F)c3)cc2O)n1 (stereo not drawn) [Compound 105, 1-((ethoxycarbonyl)oxy)ethyl 2-(3-(3,4-difluorophenyl)-5-hydroxy-1H-pyrazol-1-yl)thiazole-4-carboxylate] | < 4.24 |
| CN(C)C(=O)Oc1cc(-c2ccc(F)c(F)c2)nn1-c1nc(C(=O)Oc2ccc3c(c2)CCC3)cs1 [Compound 107, 2,3-dihydro-1H-inden-5-yl 2-(3-(3,4-difluorophenyl)-5-((dimethylcarbamoyl)oxy)-1H-pyrazol-1-yl)thiazole-4-carboxylate] | < 4.24 |
| O=C(O)c1csc(-n2nc(-c3ccc(F)c(F)c3)c(Cc3ccccc3)c2O)n1 [Compound 113, 2-(4-benzyl-3-(3,4-difluorophenyl)-5-hydroxy-1H-pyrazol-1-yl)thiazole-4-carboxylic acid] | < 4.24 |

The next lines start with the values.

| pIC50 | SMILES |
| --- | --- |
| < 4.24 | CS(=O)(=O)c1cc(-c2cc(O)n(-c3nc(C(=O)O)cs3)n2)ccc1F [Compound 94, 2-(3-(4-fluoro-3-(methylsulfonyl)phenyl)-5-hydroxy-1H-pyrazol-1-yl)thiazole-4-carboxylic acid] |
| < 4.24 | CCOC(=O)OC(C)OC(=O)c1csc(-n2nc(-c3ccc(F)c(F)c3)cc2OC(C)OC(=O)OCC)n1 (stereo not drawn) [Compound 98, 1-((ethoxycarbonyl)oxy)ethyl 2-(3-(3,4-difluorophenyl)-5-(1-((ethoxycarbonyl)oxy)ethoxy)-1H-pyrazol-1-yl)thiazole-4-carboxylate] |
| < 4.24 | O=C(O)c1csc(-n2nc(-c3c(F)cccc3F)cc2O)n1 [Compound 100, 2-(3-(2,6-difluorophenyl)-5-hydroxy-1H-pyrazol-1-yl)thiazole-4-carboxylic acid] |
| < 4.24 | O=C(O)c1csc(-n2nc(-c3cc(F)ccc3F)cc2O)n1 [Compound 102, 2-(3-(2,5-difluorophenyl)-5-hydroxy-1H-pyrazol-1-yl)thiazole-4-carboxylic acid] |
| < 4.24 | CS(=O)(=O)Nc1cc(-c2cc(O)n(-c3nc(C(=O)O)cs3)n2)ccc1F [Compound 103, 2-(3-(4-fluoro-3-(methylsulfonamido)phenyl)-5-hydroxy-1H-pyrazol-1-yl)thiazole-4-carboxylic acid] |
| < 4.24 | O=C(O)c1csc(-n2nc(-c3ccc(F)c(Cc4ccccc4)c3)cc2O)n1 [Compound 104, 2-(3-(3-benzyl-4-fluorophenyl)-5-hydroxy-1H-pyrazol-1-yl)thiazole-4-carboxylic acid] |
| < 4.24 | O=C(OCCN1CCOCC1)c1csc(-n2nc(-c3ccc(F)c(F)c3)cc2O)n1 [Compound 106, 2-morpholinoethyl 2-(3-(3,4-difluorophenyl)-5-hydroxy-1H-pyrazol-1-yl)thiazole-4-carboxylate] |
| < 4.24 | O=C(Oc1ccc2c(c1)CCC2)c1csc(-n2nc(-c3ccc(F)c(F)c3)cc2O)n1 [Compound 108, 2,3-dihydro-1H-inden-5-yl 2-(3-(3,4-difluorophenyl)-5-hydroxy-1H-pyrazol-1-yl)thiazole-4-carboxylate] |
| < 4.24 | CC(C)C(=O)OCOC(=O)c1csc(-n2nc(-c3ccc(F)c(F)c3)cc2O)n1 [Compound 109, (isobutyryloxy)methyl 2-(3-(3,4-difluorophenyl)-5-hydroxy-1H-pyrazol-1-yl)thiazole-4-carboxylate] |
| < 4.24 | O=C(O)c1csc(-n2nc(-c3ccc(F)c(S(=O)(=O)NCc4ccccc4)c3)cc2O)n1 [Compound 110, 2-(3-(3-(N-benzylsulfamoyl)-4-fluorophenyl)-5-hydroxy-1H-pyrazol-1-yl)thiazole-4-carboxylic acid] |
| < 4.24 | O=C(O)c1csc(-n2nc(-c3ccc(NS(=O)(=O)C4CC4)c(F)c3)cc2O)n1 [Compound 111, 2-(3-(4-(cyclopropanesulfonamido)-3-fluorophenyl)-5-hydroxy-1H-pyrazol-1-yl)thiazole-4-carboxylic acid] |
| < 4.24 | O=C(O)c1csc(-n2nc(-c3ccc(CCNS(=O)(=O)C4CC4)c(F)c3)cc2O)n1 [Compound 112, 2-(3-(4-(2-(cyclopropanesulfonamido)ethyl)-3-fluorophenyl)-5-hydroxy-1H-pyrazol-1-yl)thiazole-4-carboxylic acid] |

Same assay, conditions: read-out: Inhibitory activity IC50

| SMILES | pIC50 |
| --- | --- |
| Nc1c(Cc2ccc(S(N)(=O)=O)cc2)c(-c2ccccc2)nn1C(=O)c1cccc(F)c1 [Compound 85, 4-((5-amino-1-(3-fluorobenzoyl)-3-phenyl-1H-pyrazol-4-yl)methyl)benzenesulfonamide] | 4.24 to 6.00 |
| Cc1csc(-n2nc(-c3ccccc3)c(Cc3ccc(S(N)(=O)=O)cc3)c2N)n1 [Compound 86, 4-((5-amino-1-(4-methylthiazol-2-yl)-3-phenyl-1H-pyrazol-4-yl)methyl)benzenesulfonamide] | 4.24 to 6.00 |
| NS(=O)(=O)c1ccc(Cc2c(-c3ccccc3)nn(-c3nc(C(=O)O)cs3)c2Cc2nnn[nH]2)cc1 [Compound 87, 2-(5-((1H-tetrazol-5-yl)methyl)-3-phenyl-4-(4-sulfamoylbenzyl)-1H-pyrazol-1-yl)thiazole-4-carboxylic acid] | 4.24 to 6.00 |
| NS(=O)(=O)c1ccc(Cc2c(-c3ccccc3)nn(-c3nc(CO)cs3)c2C(F)(F)F)cc1 [Compound 88, 4-((1-(4-(hydroxymethyl)thiazol-2-yl)-3-phenyl-5-(trifluoromethyl)-1H-pyrazol-4-yl)methyl)benzenesulfonamide] | 4.24 to 6.00 |
| NS(=O)(=O)N1CCN(Cc2cn(-c3nc(C(=O)O)cs3)nc2-c2ccccc2)CC1 [Compound 90, 2-(3-phenyl-4-((4-sulfamoylpiperazin-1-yl)methyl)-1H-pyrazol-1-yl)thiazole-4-carboxylic acid] | 4.24 to 6.00 |
| O=C(O)c1csc(-n2nc(-c3ccccc3)cc2O)n1 [Compound 91, 2-(5-hydroxy-3-phenyl-1H-pyrazol-1-yl)thiazole-4-carboxylic acid] | < 4.24 |
| O=C(O)c1csc(-n2nc(-c3ccc(F)cc3F)cc2O)n1 [Compound 97, 2-(3-(2,4-difluorophenyl)-5-hydroxy-1H-pyrazol-1-yl)thiazole-4-carboxylic acid] | < 4.24 |
